Measurements taken from US20220184000A1, “USE OF CANNABIDIOL IN THE TREATMENT OF DRAVET SYNDROME” (priority 2019, published 2022).

Columns and labels:
Type in all cases: in vivo
[1] = system: wild type (WT) mice; test: Neonatal welfare scoring (TNW) in wild type mice, Study I
Experimental: 129S-Scn1a^tm1Keammjax heterozygote mice (Jackson Laboratory, USA) were maintained in and bred together to obtain Scn1a^−/− and wild type (WT) animals used for this Study (n=10 per group).
Following genotyping, animals were randomly divided into four groups WT vehicle-treated, WT CBD-treated, Scn1a^−/− vehicle-treated and Scn1a^−/− CBD-treated (n=10/group). They were injected subcutaneously twice daily with either CBD (100 mg/kg) or its vehicle (ethanol:Kolliphor®:0.9% saline=2:1:17) from P8 until P25 or death (whichever was earlier).
A twice daily welfare check was conducted throughout the entire duration of the study. Drug administration was conducted at 0800 h and followed by welfare checks. Conversely, afternoon welfare checks were conducted from 1600 h and followed by drug administration in order to provide the maximum possible time between doses. […]
The parameters used for the welfare assessment were: weight, natural activity (NA; 0-3), reflex/response to touch (RT; 0-3), orbital tightening (OT; 0-2), and body condition score (BC; 1-3). A total neonatal welfare score (TNW; range 0-8) was calculated by adding together scores from NA, RT, and […].
In Study I, the welfare parameters were analysed using SPSS 24 (IBM SPSS Statistics®, UK), whilst survival data were analysed using GraphPad Prism 6 software (GraphPad Software, Inc., USA). […] All the data are expressed as mean±SEM. […]

[2] = system: Scn1a^+/− mice; test: Elevated plus maze (EPM) test, anxiety-like behaviour, Study II; details: CBD 100 mg/kg s.c. twice daily
Experimental: (§1) Here, Scn1a^+/− were randomly divided into two groups and subcutaneously injected with either CBD (100 mg/kg twice daily; n=12) or its vehicle (ethanol:Kolliphor®:0.9% saline=2:1:17; n=29) from P8 onwards until P52 or death (whichever was earlier).
The elevated plus maze (EPM) test was performed to assess the level of anxiety in animals (M. Chen et al., 2017). The wooden test apparatus consists of two closed arms (50×10×40 cm) and two open arms (50×10 cm) connected via a central platform (10×10 cm) and raised at a height of 50 cm above the floor. Each animal was placed on the central platform facing towards an open arm. Activity was video recorded (Swann SRDVR-16440H, UK) for 5 minutes. The video files were blinded and coded offline at the end of all experiments using Observer XT 12 (Noldus, Netherlands). Time spent on open arms was inversely related to the level of anxiety.
(§2) In Study II, the data were analysed in GraphPad Prism 6 software. […] Data obtained from rotarod, gait, social interaction (active interaction), EPM, sucrose preference, RAM (RME) tests were normally distributed and the differences between the three groups were analysed by one-way ANOVA. […] Parametric data are presented in scattered dot plot in the figures and are expressed as mean±SEM. Non-parametric data are presented in box plot in the figures and are expressed as median, min to max, and interquartile range (IQR). […]

[3] = system: Scn1a^+/− mice; test: Static beam test (motor function), Study II; details: CBD 100 mg/kg s.c. twice daily
Experimental: as §1
The static beam task was further employed to analyse balance and coordination (Sedy, Urdzikova, Jendelova, & Sykova, 2008), where the animals were required to walk along a cylindrical elevated beam (100 cm long, 0.9 cm diameter and 50 cm height from floor) and enter a dark enclosure at the beam end. The mice were habituated to the task for three consecutive days before the test day. […] The test was video monitored (Sony DCR-SX21E) and blinded offline analysis was conducted (Observer XT 12, Noldus, The Netherlands) to evaluate the average number of foot slips made from two consecutive trials.
as §2

[4] = system: Scn1a^+/− mice; test: Gait test, Study II; details: CBD 100 mg/kg s.c. twice daily
Experimental: as §1
Gait test was conducted to assess the cerebellar function of the animals (Patel & Hillard, 2001). In this test, the hind paws of each mouse were marked with a non-toxic ink and the mouse was allowed to walk on a white paper (50×10 cm) placed on the floor of a custom-made plexiglass tunnel (50×10×10 cm). To obtain the left and right stride length, the distance between two ipsilateral paw prints was measured, whereas stride width was calculated from the distance between a footprint and its contralateral stride length at right angle (Wecker et al., 2013). The initial and last footprints were not considered in measurements. All the animals were habituated to the test procedures and the apparatus for 2 days prior to the test. On the day of test, two trials were conducted for each animal to obtain mean stride length (left or right) and width for that animal.
In Study II, the data were analysed in GraphPad Prism 6 software. Survival curves of Scn1a^+/− vehicle-treated and Scn1a^+/− CBD-treated group were compared using a Mantel-Cox test. The percentage of animals from the Scn1a^+/− vehicle-treated and Scn1a^+/− CBD-treated groups that survived until the end of the study (P52) were compared by Fisher's exact test. Further, data obtained from the comorbidity assessment were checked for normality by D'Agostino & Pearson omnibus normality test. Data obtained from rotarod, gait, social interaction (active interaction), EPM, sucrose preference, RAM (RME) tests were normally distributed and the differences between the three groups were analysed by one-way ANOVA. […] Parametric data are presented in scattered dot plot in the figures and are expressed as mean±SEM. Non-parametric data are presented in box plot in the figures and are expressed as median, min to max, and interquartile range (IQR). […]

SMILES: C=C(C)[C@@H]1CCC(C)=C[C@H]1c1c(O)cc(CCCCC)cc1O [CBD, cannabidiol]
- TNW score versus WT vehicle-treated animals (post hoc) ([1]; P8-P8.5, first day of treatment, CBD 100 mg/kg s.c. twice daily, p<0.05, FIG. 1A): improved TNW score
- mean total neonatal welfare (TNW) score ([1]; WT CBD-treated group, CBD 100 mg/kg s.c. twice daily from P8 until P25, n=10, mean±SEM, score range 0-8, vehicle group 0.39±0.04): 0.24±0.04
- time spent on open arms (EPM), Scn1a^+/− CBD-treated versus WT vehicle-treated ([2]; p=0.73): not different
- time spent on open arms (EPM), Scn1a^+/− vehicle-treated compared to Scn1a^+/− CBD-treated ([2]; statement describes vehicle group relative to CBD group (n=10), p=0.02, FIG. 4C): significantly less time on the open arms
- number of foot slips, Scn1a^+/− CBD-treated versus Scn1a^+/− vehicle-treated ([3]; p=0.23, FIG. 3B): no significant difference
- number of foot slips, Scn1a^+/− CBD-treated versus WT vehicle-treated ([3]; p=0.48): no significant difference
- stride width between the three groups ([4]; p=0.17, FIG. 3E): no significant change
- left stride length between the three groups ([4]; p=0.44, FIG. 3C): no significant change
- right stride length between the three groups ([4]; p=0.44, FIG. 3D): no significant change
